In article PMC9937993, “Structures of the NDP-pyranose mutase belonging to glycosyltransferase family 75 reveal residues important for Mn^2+ coordination and substrate binding” (The Journal of Biological Chemistry, 2023) one finds Kd data, which are given here for one molecule.

In general, Kd refers to a measure of binding affinity in units of concentration.

Common to all, as to format: binding
The target of experiment [1] is MtdL (Marinactinospora thermotolerans, UniProt G8HX37, T13P). Kind of experiment: ITC. A general note: ITC needs no label: the signal is the heat of the interaction.
The target in experiment [2] is T1, MtdL (Marinactinospora thermotolerans, UniProt G8HX37).
T1 sequence (G8HX37 1-376): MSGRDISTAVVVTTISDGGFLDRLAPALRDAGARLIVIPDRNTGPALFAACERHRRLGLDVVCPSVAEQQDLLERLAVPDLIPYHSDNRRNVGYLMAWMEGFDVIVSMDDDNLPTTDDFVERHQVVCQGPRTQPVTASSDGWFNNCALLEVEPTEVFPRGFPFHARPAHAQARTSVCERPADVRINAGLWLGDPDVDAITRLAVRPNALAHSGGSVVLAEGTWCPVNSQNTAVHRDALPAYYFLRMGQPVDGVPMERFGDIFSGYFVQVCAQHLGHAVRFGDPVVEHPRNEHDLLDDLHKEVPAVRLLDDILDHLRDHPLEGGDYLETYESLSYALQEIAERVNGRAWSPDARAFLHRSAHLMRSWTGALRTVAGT
As to the kind of experiment: ITC; crystal structure of GDP·Mn2+·MtdL at […] Å.

Experiment [3] deals with MtdL (Marinactinospora thermotolerans, UniProt G8HX37, N42D). As to the kind of experiment: ITC.

With `Nc1nc2c(ncn2[C@@H]2O[C@H](COP(=O)(O)OP(=O)(O)O)[C@@H](O)[C@H]2O)c(=O)[nH]1` [GDP], the equilibrium dissociation constant (Kd) on MtdL [1] was ~5660 nM; on MtdL [2] it was ~200 nM; at MtdL [3], ~1240 nM.
